# Test results taken from US20230183219A1, “CONDENSED SUBSTITUTED HYDROPYRROLES AS ANTAGONISTS OF THE MUSCARINIC ACETYLCHOLINE RECEPTOR M4” (Vanderbilt University, priority 2020, published 2023).
# Target: T1, Human M4 (Homo sapiens, UniProt P08173)
# T1 construct: Human or rat M4 cDNA, along with the chimeric G protein Gqi5, were transfected into Chinese hamster ovary (CHO-K1) cells; expressed in transfected cells; host or cells: CHO-K1 (Chinese hamster ovary, ATCC), stably co-expressing Gqi5
# T1 sequence (P08173 1-479): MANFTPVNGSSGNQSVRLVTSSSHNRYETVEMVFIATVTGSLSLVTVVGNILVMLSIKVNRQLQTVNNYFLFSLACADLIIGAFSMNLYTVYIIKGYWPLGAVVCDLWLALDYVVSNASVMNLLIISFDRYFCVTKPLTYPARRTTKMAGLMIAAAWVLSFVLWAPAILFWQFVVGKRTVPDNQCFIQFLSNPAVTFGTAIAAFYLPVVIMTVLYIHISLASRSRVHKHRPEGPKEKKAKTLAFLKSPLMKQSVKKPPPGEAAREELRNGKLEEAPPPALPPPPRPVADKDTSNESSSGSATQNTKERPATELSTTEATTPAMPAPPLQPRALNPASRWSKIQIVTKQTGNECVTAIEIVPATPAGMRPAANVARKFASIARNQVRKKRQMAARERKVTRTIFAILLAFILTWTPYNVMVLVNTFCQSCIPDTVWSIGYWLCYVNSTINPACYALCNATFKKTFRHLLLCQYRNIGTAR
# Test: mAChR M4 cell-based functional assay (calcium flux, decrease of EC80 acetylcholine response)
# Settings: for remaining activity at 30 µM / Human M4 Emin: % ACh maximum at 30 μM; for remaining activity at 30 µM: read-out: Human M4 Emin; for IC50: M4/Gqi5/CHO-K1 cells, decrease of response to EC80 acetylcholine
# Procedure, shortened: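 IC50 reflects inhibition of an EC80 acetylcholine calcium response, fitted by four-parameter logistic equation. Fluo-4-loaded M4/Gqi5 CHO-K1 cells received compound (10-point, 1:3 series) 2 s into the FDSS read, then EC20 acetylcholine at 143 s and EC80 at 268 s.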
Compound,remaining activity at 30 µM [%],IC50 [nM],Human M4 Emin [%]
"[2H][C@@]1(Nc2nnc(-c3ccc4nn(C)cc4c3)cc2C(F)(F)F)C[C@H]2CN(CC3CCOCC3)C[C@H]2C1 [Example 128, (3aR,5s,6aS)-N-(6-(2-methyl-2H-indazol-5-yl)-4-(trifluoro-methyl)pyridazin-3-yl)-2-((tetrahydro-2H-pyran-4-yl)methyl)octahydro-cyclopenta[c]pyrrol-5-d-5-amine]",3,13.2,–
"CC(C)(C)CCN1C[C@H]2C[C@H](Nc3ncc(-c4cc(F)ccc4Cl)cn3)C[C@H]2C1 [Example 15, (3aR,5s,6aS)-N-(5-(2-chloro-5-fluorophenyl)pyrimidin-2-yl)-2-(3,3-dimethylbutyl)octahydro-cyclopenta[c]pyrrol-5-amine]",3,3330,–
"Cc1ccc(F)cc1-c1cc(C(F)(F)F)c(N[C@H]2C[C@@H]3CN(CC4CCCOC4)C[C@@H]3C2)nn1 (single isomer, unassigned) [Example 121]",–,10.1,3
"Cn1cc2cc(-c3cc(C#N)c(N[C@H]4C[C@@H]5CN(CC6(C#N)CC6)C[C@@H]5C4)nn3)ccc2n1 [Example 160, 3-(((3aR,5s,6aS)-2-((1-cyano-cyclopropyl)methyl)octahydro-cyclopenta[c]pyrrol-5-yl)amino)-6-(2-methyl-2H-indazol-5-yl)pyridazine-4-carbonitrile]",6,688,–
"FC(F)(F)c1cc(N2CCCC2)nnc1N[C@H]1C[C@@H]2CN(CC3CCOCC3)C[C@@H]2C1 [Example 142, (3aR,5s,6aS)-N-(6-(pyrrolidin-1-yl)-4-(trifluoro-methyl)pyridazin-3-yl)-2-((tetrahydro-2H-pyran-4-yl)methyl)octahydro-cyclopenta[c]pyrrol-5-amine]",2,3,–
"CCc1ccc(F)c(-c2cc(C(F)(F)F)c(N[C@H]3C[C@@H]4CN(CC5CCOCC5)C[C@@H]4C3)nn2)c1 [Example 95, (3aR,5s,6aS)-N-(6-(5-ethyl-2-fluorophenyl)-4-(trifluoromethyl)pyridazin-3-yl)-2-((tetrahydro-2H-pyran-4-yl)methyl)octahydro-cyclopenta[c]pyrrol-5-amine]",3,931,–
"[2H]C([2H])([C@@H]1CCOC1)N1C[C@H]2C[C@H](Nc3nnc(-c4cc(C)ccc4C)cc3C(F)(F)F)C[C@H]2C1 [Example 115, (3aR,5s,6aS)-N-(6-(2,5-dimethylphenyl)-4-(trifluoro-methyl)pyridazin-3-yl)-2-(((S)-tetrahydrofuran-3-yl)methyl-d2)octahydro-cyclopenta[c]pyrrol-5-amine]",3,176,–
"C[C@H]1CCCN(c2cc(C(F)(F)F)c(N[C@H]3C[C@@H]4CN(CC5CCOCC5)C[C@@H]4C3)nn2)C1 [Example 6, (3aR,5s,6aS)—N-(6-((S)-3-methylpiperidin-1-yl)-4-(trifluoromethyl)pyridazin-3-yl)-2-((tetrahydro-2H-pyran-4-yl)methyl)octahydrocyclopenta[c]pyrrol-5-amine]",–,1220,4
"Cc1ccc(F)cc1-c1cc(C(F)(F)F)c(N[C@H]2C[C@@H]3CN(CC4COCCO4)C[C@@H]3C2)nn1 (stereo partly drawn) [Example 19, (3aR,5s,6aS)-2-((1,4-dioxan-2-yl)methyl)-N-(6-(5-fluoro-2-methylphenyl)-4-(trifluoromethyl)pyridazin-3-yl)octahydro-cyclopenta[c]pyrrol-5-amine]",2,4.5,–
"Fc1ccccc1-c1cc(C(F)(F)F)c(N[C@H]2C[C@@H]3CN(Cc4ccccn4)C[C@@H]3C2)nn1 [Example 101, (3aR,5s,6aS)-N-(6-(2-fluorophenyl)-4-(trifluoro-methyl)pyridazin-3-yl)-2-(pyridin-2-ylmethyl)octahydro-cyclopenta[c]pyrrol-5-amine]",3,674,–
"FC(F)(F)Oc1ccccc1-c1cc(C(F)(F)F)c(N[C@H]2C[C@@H]3CN(CC4CCOCC4)C[C@@H]3C2)nn1 [Example 58, (3aR,5s,6aS)-2-((tetrahydro-2H-pyran-4-yl)methyl)-N-(6-(2-(trifluoro-methoxy)phenyl)-4-(trifluoromethyl)pyridazin-3-yl)octahydro-cyclopenta[c]pyrrol-5-amine]",3,249,–
"COc1ccc(F)cc1-c1cc(C(F)(F)F)c(N[C@H]2C[C@@H]3CN(CC4CCOCC4)C[C@@H]3C2)nn1 [Example 49, (3aR,5s,6aS)-N-(6-(5-fluoro-2-methoxyphenyl)-4-(trifluoromethyl)pyridazin-3-yl)-2-((tetrahydro-2H-pyran-4-yl)methyl)octahydro-cyclopenta[c]pyrrol-5-amine]",3,94.3,–
"Cn1cc2cc(-c3cc(C#N)c(N[C@H]4C[C@@H]5CN(C[C@H]6CCOC6)C[C@@H]5C4)nn3)ccc2n1 [Example 155, 6-(2-methyl-2H-indazol-5-yl)-3-(((3aR,5s,6aS)-2-(((R)-tetrahydrofuran-3-yl)methyl)octahydro-cyclopenta[c]pyrrol-5-yl)amino)pyridazine-4-carbonitrile]",5,103,–
"Fc1ccc(Cl)c(-c2nnc(N[C@H]3C[C@@H]4CN(CC5CCOCC5)C[C@@H]4C3)cc2C(F)(F)F)c1 [Example 10, (3aR,5s,6aS)-N-(6-(2-chloro-5-fluorophenyl)-5-(trifluoro-methyl)pyridazin-3-yl)-2-((tetrahydro-2H-pyran-4-yl)methyl)octahydro-cyclopenta[c]pyrrol-5-amine]",3,2.06,–

# The next lines start with results.
remaining activity at 30 µM [%],IC50 [nM],Compound,Human M4 Emin [%]
4,394,"Cn1cc2cc(-c3cnc(N[C@H]4C[C@@H]5CN(CCC(C)(C)C)C[C@@H]5C4)nc3)ccc2n1 [Example 14, (3aR,5s,6aS)-2-(3,3-dimethyl-butyl)-N-(5-(2-methyl-2H-indazol-5-yl)pyrimidin-2-yl)octahydro-cyclopenta[c]pyrrol-5-amine]",–
3,74.3,"Cn1cc2cc(-c3cc(C(F)(F)F)c(N[C@H]4C[C@@H]5CN(C[C@H]6CC7CCC6O7)C[C@@H]5C4)nn3)ccc2n1 (stereo partly drawn) [Example 27, (3aR,5s,6aS)-2-(((2R)-7-oxabicyclo[2.2.1]heptan-2-yl)methyl)-N-(6-(2-methyl-2H-indazol-5-yl)-4-(trifluoromethyl)pyridazin-3-yl)octahydro-cyclopenta[c]pyrrol-5-amine]",–
3,55.3,"[2H]C([2H])(C1CCOCC1)N1C[C@H]2C[C@H](Nc3nnc(-c4ccc5c(c4)OCC5)cc3C(F)(F)F)C[C@H]2C1 [Example 123, (3aR,5s,6aS)-N-(6-(2,3-dihydro-benzofuran-6-yl)-4-(trifluoro-methyl)pyridazin-3-yl)-2-((tetrahydro-2H-pyran-4-yl)methyl-d2)octahydro-cyclopenta[c]pyrrol-5-amine]",–
3,41.2,"[2H]C([2H])(C1CCOCC1)N1C[C@H]2C[C@H](Nc3nnc(-c4ccccc4)cc3C(F)(F)F)C[C@H]2C1 [Example 108, (3aR,5s,6aS)-N-(6-phenyl-4-(trifluoromethyl)pyridazin-3-yl)-2-((tetrahydro-2H-pyran-4-yl)methyl-d2)octahydro-cyclopenta[c]pyrrol-5-amine]",–
4,634,"Fc1ccc(C(F)(F)F)cc1-c1cc(C(F)(F)F)c(N[C@H]2C[C@@H]3CN(CC4CCOCC4)C[C@@H]3C2)nn1 [Example 89, (3aR,5s,6aS)-N-(6-(2-fluoro-5-(trifluoromethyl)phenyl)-4-(trifluoromethyl)pyridazin-3-yl)-2-((tetrahydro-2H-pyran-4-yl)methyl)octahydro-cyclopenta[c]pyrrol-5-amine]",–
4,2.41,Cc1ccc(F)cc1-c1cc(C(F)(F)F)c(N[C@H]2C[C@@H]3CN(CC4CCOCC4)C[C@@H]3C2)nn1 [compound 11],–
3,45.1,"Cn1ncc2cc(-c3cc(C(F)(F)F)c(N[C@H]4C[C@@H]5CN(CC6CCOCC6)C[C@@H]5C4)nn3)ccc21 [Example 75, (3aR,5s,6aS)-N-(6-(1-methyl-1H-indazol-5-yl)-4-(trifluoromethyl)pyridazin-3-yl)-2-((tetrahydro-2H-pyran-4-yl)methyl)octahydro-cyclopenta[c]pyrrol-5-amine]",–
3,757,"CC(C)Oc1cc(F)c(-c2cc(C(F)(F)F)c(N[C@H]3C[C@@H]4CN(CC5CCOCC5)C[C@@H]4C3)nn2)cc1F [Example 97, (3aR,5s,6aS)-N-(6-(2,5-difluoro-4-isopropoxyphenyl)-4-(trifluoromethyl)pyridazin-3-yl)-2-((tetrahydro-2H-pyran-4-yl)methyl)octahydro-cyclopenta[c]pyrrol-5-amine]",–
